Measurements: paper PMC10216581, “Homogeneous, Synthetic, Non-Saccharide Glycosaminoglycan Mimetics as Potent Inhibitors of Human Cathepsin G” (Biomolecules, 2023)

Experiments:
Type in all cases: biochemical
[1] = test system: human plasma; experiment: Prothrombin time (PT) clotting assay; settings: concentration required to double the PT of pooled human plasma
Description: (§1) The impacts of NSGM 25 on activated partial thromboplastin time (aPTT) and the prothrombin time (PT) of human plasma were measured employing a standard one-stage recalcification assay at 37 °C, as previously reported. CaCl2 and thromboplastin-D were used to initiate clotting in aPTT and PT assays, respectively, in the absence and presence of NSGM 25, and the time to clot was recorded accordingly.

[2] = test system: human plasma; experiment: Activated partial thromboplastin time (aPTT) clotting assay; settings: concentration required to double the aPTT of pooled human plasma
Description: as §1

[3] = molecular target: T1, Human CatG (Homo sapiens, UniProt P08311); experiment: Direct inhibition of CatG, chromogenic substrate (S-7388) hydrolysis assay, IC50 determination; settings: for IC50: pH 7.4 tris buffer, 37 °C, 60 nM CatG, 750 µM S-7388, ± 1 S.E., read-out: IC50; for IC50 / HS (Hill slope) / ΔY (efficacy): 100 mM NaCl; for HS (Hill slope): Hill slope of dose-response fit; for HS (Hill slope) / ΔY (efficacy): pH 7.4; for ΔY (efficacy): ΔY = YM − YO of dose-response fit; for fold difference (loss) in CatG inhibition potency relative to NSGM 25: ratio of IC50s versus 25
T1 construct: purchased Elastin Products Company (Owensville, MO, USA)
T1 sequence (P08311 21-255): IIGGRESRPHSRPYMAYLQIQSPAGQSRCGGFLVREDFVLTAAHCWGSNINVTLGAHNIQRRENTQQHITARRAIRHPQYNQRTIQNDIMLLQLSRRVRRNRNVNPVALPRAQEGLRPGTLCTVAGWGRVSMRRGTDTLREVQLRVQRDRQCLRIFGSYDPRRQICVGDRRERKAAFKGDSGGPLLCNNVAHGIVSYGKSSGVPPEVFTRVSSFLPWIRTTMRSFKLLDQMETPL
Description: A chromogenic substrate hydrolysis assay was used to determine the direct inhibition of CatG by the NSGMs, as previously reported. To each well of a 96-well microplate containing 88 µL of 20 mM tris buffer, containing 100 mM NaCl, 2.5 mM CaCl2, 0.1% PEG 8000, and 0.05% Tween 80, 4 µL of CatG (final concentration of 60 nM) and 5 µL of H2O or NSGM (final concentration of 0–100 µM) were added. After incubating for a period of 5 min, 3 µL of CatG substrate (S-7388, final concentration of 750 µM) was added, and the residual CatG activity was obtained from the initial rate of increase of absorbance at 405 nm. The relative residual activity of CatG for each of the NSGMs, at the various concentrations, was calculated from the ratio of CatG activity in the presence and absence of NSGMs. The dose dependence curve was plotted using a logistic equation (see below) in Sigmaplot version 12 to obtain the IC50 (potency), Hill slope (HS), and efficacy (ΔY). Here, Y is the ratio of residual CatG activity in the presence of NSGMs to that in their absence, YO and YM are the minimum and maximum values of fractional residual CatG activity, respectively, IC50 is the concentration of the NSGM that inhibits CatG activity by 50%, and HS is the Hill slope. ΔY = YM − YO. Y=YO+YM−YO/1+10^logI0−logIC50HS
Figure 4 Representative IC50 profiles for CatG inhibition by NSGMs. Direct inhibition of human CatG was measured using the chromogenic substrate hydrolysis assay at pH 7.4 and 37 °C. Solid lines represent analysis using the logistic dose–response relationship (Equation (1)) to obtain the IC50, ΔY%, and HS. Errors represent ± 1 S.E.

SMILES | PT (EC2X) [1] | aPTT (EC2X) [2] | IC50 [3] | HS (Hill slope) [3] | ΔY (efficacy) [3] | fold difference (loss) in CatG inhibition potency relative to NSGM 25 [3]
CC1CNc2c(cccc2S(=O)(=O)N[C@@H](CCCNC(=N)N)C(=O)N2CC[C@@H](C)C[C@@H]2C(=O)O)C1 (some centres unmarked) [Argatroban, argatroban, reference compound] | 0.36 µM | 0.34 µM |  |  |  | 
CCOC(=O)c1c(C)oc2cc(OCc3cccc(OS(=O)(=O)O)c3)c(OS(=O)(=O)O)cc12 [NSGM 2] |  |  | > 50 µM |  |  | 
COc1cc2oc(C)c(C(=O)OCCOS(=O)(=O)O)c2cc1OS(=O)(=O)O [NSGM 3] |  |  | > 50 µM |  |  | 
Cc1ccc(OCCOc2cc(OS(=O)(=O)O)cc3oc(-c4ccc(OS(=O)(=O)O)cc4)cc(=O)c23)cc1 [NSGM 16] |  |  | > 100 µM | 1.9 ± 0.3 | 115 ± 4% | 
O=S(=O)(O)Oc1cc2c(c(OS(=O)(=O)O)c1)CC(OS(=O)(=O)O)C(c1ccc(OS(=O)(=O)O)c(OS(=O)(=O)O)c1)O2 (centres unmarked) [NSGM 17] |  |  | 65 ± 13 µM | 3.1 ± 1.3 | 76 ± 7% | 
O=c1cc(-c2ccc(OS(=O)(=O)O)cc2)oc2cc(OS(=O)(=O)O)cc(OCC=CCOc3cc(OS(=O)(=O)O)cc4oc(-c5ccc(OS(=O)(=O)O)cc5)cc(=O)c34)c12 [NSGM 18] |  |  | 4.7 ± 0.7 µM | 1.5 ± 0.3 | 81 ± 7% | 
O=c1cc(-c2ccc(OS(=O)(=O)O)cc2)oc2cc(OS(=O)(=O)O)cc(OCc3ccc(COc4cc(OS(=O)(=O)O)cc5oc(-c6ccc(OS(=O)(=O)O)cc6)cc(=O)c45)cc3)c12 [NSGM 19] |  |  | 3.3 ± 0.3 µM | 3.1 ± 1.0 | 82 ± 4% | 66 fold
O=c1cc(-c2ccc(OS(=O)(=O)O)cc2)oc2cc(OS(=O)(=O)O)cc(OCc3cccc(COc4cc(OS(=O)(=O)O)cc5oc(-c6ccc(OS(=O)(=O)O)cc6)cc(=O)c45)c3)c12 [NSGM 21] |  |  | 10.3 ± 4.8 µM | 1.3 ± 0.8 | 81 ± 7% | 
O=c1cc(-c2ccc(OS(=O)(=O)O)cc2)oc2cc(OS(=O)(=O)O)cc(OCc3ccc(COc4cc(OS(=O)(=O)O)cc5oc(-c6ccc(OS(=O)(=O)O)cc6)cc(=O)c45)nc3)c12 [NSGM 22] |  |  | 1.3 ± 0.2 µM | 1.2 ± 0.2 | 105 ± 7% | 
O=c1cc(-c2ccc(OS(=O)(=O)O)cc2)oc2cc(OS(=O)(=O)O)cc(OCc3ccc(-c4ccc(COc5cc(OS(=O)(=O)O)cc6oc(-c7ccc(OS(=O)(=O)O)cc7)cc(=O)c56)cc4)cc3)c12 [NSGM 23] |  |  | 3.4 ± 0.2 µM | 4.1 ± 1.0 | 103 ± 4% | 
O=c1c(OS(=O)(=O)O)c(-c2ccc(OS(=O)(=O)O)c(OS(=O)(=O)O)c2)oc2cc(OS(=O)(=O)O)cc(OCCCOc3cc(OS(=O)(=O)O)cc4oc(-c5ccc(OS(=O)(=O)O)c(OS(=O)(=O)O)c5)c(OS(=O)(=O)O)c(=O)c34)c12 [NSGM 24] |  |  | 0.21 ± 0.04 µM | 1.5 ± 0.5 | 94 ± 9% | 4 fold
O=c1c(OS(=O)(=O)O)c(-c2ccc(OS(=O)(=O)O)c(OS(=O)(=O)O)c2)oc2cc(OS(=O)(=O)O)cc(OCc3cccc(COc4cc(OS(=O)(=O)O)cc5oc(-c6ccc(OS(=O)(=O)O)c(OS(=O)(=O)O)c6)c(OS(=O)(=O)O)c(=O)c45)c3)c12 [NSGM 27] |  |  | 0.15 ± 0.06 µM | 0.9 ± 0.4 | 77 ± 10% | 
O=c1c(OS(=O)(=O)O)c(-c2ccc(OS(=O)(=O)O)c(OS(=O)(=O)O)c2)oc2cc(OS(=O)(=O)O)cc(OCc3ccc(COc4cc(OS(=O)(=O)O)cc5oc(-c6ccc(OS(=O)(=O)O)c(OS(=O)(=O)O)c6)c(OS(=O)(=O)O)c(=O)c45)nc3)c12 [NSGM 28] |  |  | 0.18 ± 0.04 µM | 0.9 ± 0.2 | 77 ± 5% | 
CCOC(=O)c1c(C)oc2cc(OCc3ccccc3)c(OCCCOc3cc(OS(=O)(=O)O)cc4oc(-c5ccc(OS(=O)(=O)O)cc5)cc(=O)c34)cc12 [NSGM 30] |  |  | 18.9 ± 2.2 µM | 2.1 ± 0.5 | 87 ± 5% | 
O=C(NC[C@H]1CN(c2ccc(N3CCOCC3=O)cc2)C(=O)O1)c1ccc(Cl)s1 [Rivaroxaban, rivaroxaban, reference compound] | 0.15 µM | 0.12 µM |  |  |  | 
